In one test the test system is UGN. Put plainly: ELISA detection of serum UGN in macaques. In kind it is in vivo. The settings on record: macaque, not significant (p=0.06). Background: An ELISA detects its analyte on a solid surface through an enzyme-linked reagent.
Test [1] in a line: Rat feeding experiment (high-fat diet). In kind it is in vivo, Sprague Dawley (SD) rats. The settings on record: SD rats, 10 weeks. Here is the method:
Sprague Dawley (SD) rats were used in the rat experiment. At the beginning of the experiment, the rats were 4 weeks old, and each weighed 137±5 g. They were raised in a room with suitable temperature and humidity control, and the light/dark cycle was 12 hours, free diet and drinking water, and fed with standard laboratory feed (a growth and reproduction feed, SPFSLFZ003). After one week of adaptation, they were randomly assigned to a cage. HD treatment was represented by D3, a total of 3 treatments were set up, and each treatment was subjected to different feeding treatments, specifically as follows (see figure a of FIG. 7):
NC group (i.e. normal diet group): 8 rats were fed with standard laboratory feed (also known as growth and reproduction feed, SPFSLFZ003), free diet and drinking water for 10 weeks.
HFD group (i.e. high-fat diet group): 8 rats were fed with high-fat diet, the high-fat diet used was rodent feed (containing 60 kcal % fat, D12492), free diet and drinking water for 10 weeks.
D3 group (i.e. high-fat diet+D3 medicine intragastric administration group): 10 rats were fed with high-fat diet, free diet and drinking water. Intragastrically administrated with HD (choose D3), 0.5 mg-2 mg/Kg body weight, 0.5 ml, once/day for 10 weeks.
Body weights were monitored weekly. […]

Test [2] is described as follows: Macaque experiment (high-fat diet). In kind it is in vivo. The note with it: rhesus monkeys, high-fat diet (45 kcal % fat), intragastric 0.5 mg-1 mg/Kg once/day, after 6 weeks. The method, then: Rhesus monkeys were used in the macaque experiment. 9 in total, […] at the beginning of the experiment, and each weighed 2.5±0.5 Kg. They were raised individually in the same environment, in a room with suitable temperature and humidity control, and the light/dark cycle was 12 hours, free diet and drinking water, and fed with standard laboratory feed (#2150230401). After 7 days of adaptation, they were randomly assigned to 3 groups with 3 animals in each group, and each group was subjected to different feeding treatments, specifically as follows (see figure e of FIG. 7):
NC group (i.e. normal diet group): fed with standard laboratory feed (#2150230401), free diet and drinking water for 6 weeks.
HFD group (i.e. high-fat diet group): fed with high-fat diet (45 kcal % fat), free diet and drinking water for 6 weeks.
D3 group (i.e. high-fat diet+D3 medicine intragastric administration group): fed with high-fat diet (45 kcal % fat), free diet and drinking water for 6 weeks. HD medicines were selected as D3, intragastrically administrated with D3, 0.5 mg-1 mg/Kg body weight, and intragastrically administrated according to 1.7 ml/Kg body weight, once/day.
Food intake (unit: g/only/week) and body weight were monitored weekly. Fresh excreta of the above animals were collected and stored at −80° C. for further analysis of macaque fecal flora (method as above).

Test [3] concerns Guca2b. In words: qPCR of Guca2b mRNA in the ileum of rats. In kind it is in vivo. The method, then: (§1) qPCR gene expression was carried out using the StepOnePlus real-time fluorescent quantitative PCR system. Three technical replicates were performed for each sample, and the identity and purity of the amplified product were checked by analyzing the melting curve at the end of the amplification. Gene expression results were referenced to the percent expression of each gene normalized to glyceraldehyde-3-phosphate dehydrogenase (GAPDH).
Background: Real-time PCR tracks product formation cycle by cycle.

For test [4], the system named is Guca2b. In words: Ileum transcriptome sequencing and qPCR gene expression in mice. The settings on record: P<0.01. In kind it is in vivo. Here is the method:
In order to find the target genes that D3 may act on, the inventors performed ileal transcriptome analysis. Three samples from each group of mice were selected as targets for transcriptome sequencing. Ileal RNA was extracted using the Trizol method and an Agilent 2100 analyser was required to detect the RNA quality above 7 for RNA library construction. After passing the sample test, 2 μg of total RNA was taken from each sample to construct a transcriptome sequencing library. After data acquisition, the RNA-seq data was first de-redundantly removed using Trim galore v0.4.4 to remove junctions and low quality sequences. Using GRCm38 as the mice reference genome, HISAT2 v2.0.5 and StringTie v1.3.4 were used to quantify the abundance of each gene. Differential expression analysis was performed using DESeq2 v1.24.0.
as §1

We go through one sequence from patent publication US20240376148A1, “MEDICAMENT FOR INHIBITING DIETARY OBESITY AND POLYPEPTIDE USED THEREFOR” (INSTITUTE OF ZOOLOGY, CHINESE ACADEMY OF SCIENCES, priority 2022, published 2024).

On to RTRYCRTGR [D3], for which the “UGN levels in the serum” value in the test on UGN is recorded as “Increased”. For the same sequence, in test [1] (vs HFD group), the “decrease of growth rate of body weight” value was found to be 8.96±3.11%. Further, in test [1] (intragastric 0.5 mg-2 mg/Kg once/day), the “body weight compared with the HFD group” value is “significantly lower than that of the HFD group”. In addition, the “growth rate of body weight” value in test [2] is “decreased significantly”. Also, the “mRNA level of UGN in the ileum” value with Guca2b [3] is “increased significantly”. For the same sequence, the “expression of UGN (Guca2b) in the ileum” value with Guca2b [4] (GF mice) and with Guca2b [4] (SPF mice) was “significantly up-regulated” in each case.
